Source: ChEMBL document CHEMBL5120757, “Strategies Targeting Protein Tyrosine Phosphatase SHP2 for Cancer Therapy” (J Med Chem, 2022)

How the values were obtained:
[1] = biological target: T1, Tyrosine-protein phosphatase non-receptor type 11 (Homo sapiens, UniProt Q06124); experiment: Inhibition of SHP2 (unknown origin)
T1 sequence (Q06124 whole entry): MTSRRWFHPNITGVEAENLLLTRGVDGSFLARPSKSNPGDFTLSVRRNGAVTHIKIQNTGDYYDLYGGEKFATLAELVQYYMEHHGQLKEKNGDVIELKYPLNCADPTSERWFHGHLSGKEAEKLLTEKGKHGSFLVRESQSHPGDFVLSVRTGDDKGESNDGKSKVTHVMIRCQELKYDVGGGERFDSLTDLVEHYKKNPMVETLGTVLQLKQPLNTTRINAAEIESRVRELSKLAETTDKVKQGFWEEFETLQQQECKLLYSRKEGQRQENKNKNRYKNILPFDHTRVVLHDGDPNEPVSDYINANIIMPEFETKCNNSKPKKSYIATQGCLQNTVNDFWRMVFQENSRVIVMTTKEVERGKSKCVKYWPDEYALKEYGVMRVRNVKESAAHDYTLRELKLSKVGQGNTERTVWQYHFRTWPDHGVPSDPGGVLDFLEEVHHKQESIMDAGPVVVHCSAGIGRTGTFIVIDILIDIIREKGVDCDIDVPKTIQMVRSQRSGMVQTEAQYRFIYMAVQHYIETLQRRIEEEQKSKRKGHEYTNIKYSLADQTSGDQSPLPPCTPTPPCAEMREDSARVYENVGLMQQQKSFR

[2] = biological target: T1, Tyrosine-protein phosphatase non-receptor type 11; experiment: Degradation of wildtype SHP2 in human MV411 cells; format: cell-based; settings: mv4-11
[3] = biological target: Tyrosine-protein phosphatase non-receptor type 11 (Homo sapiens, UniProt Q06124, F285S); experiment: Inhibition of SHP2 F285S mutant (unknown origin) using DiFMUP as substrate incubated for 1 hr followed by substrate addition measured after 30 mins by plate reader method
[4] = biological target: T1, Tyrosine-protein phosphatase non-receptor type 11; experiment: Inhibition of wildtype SHP2 (unknown origin)

Tyrosine-protein phosphatase non-receptor type 11 (Homo sapiens, UniProt Q06124, F285S), sequence (Q06124 2-593 F285S limits assumed): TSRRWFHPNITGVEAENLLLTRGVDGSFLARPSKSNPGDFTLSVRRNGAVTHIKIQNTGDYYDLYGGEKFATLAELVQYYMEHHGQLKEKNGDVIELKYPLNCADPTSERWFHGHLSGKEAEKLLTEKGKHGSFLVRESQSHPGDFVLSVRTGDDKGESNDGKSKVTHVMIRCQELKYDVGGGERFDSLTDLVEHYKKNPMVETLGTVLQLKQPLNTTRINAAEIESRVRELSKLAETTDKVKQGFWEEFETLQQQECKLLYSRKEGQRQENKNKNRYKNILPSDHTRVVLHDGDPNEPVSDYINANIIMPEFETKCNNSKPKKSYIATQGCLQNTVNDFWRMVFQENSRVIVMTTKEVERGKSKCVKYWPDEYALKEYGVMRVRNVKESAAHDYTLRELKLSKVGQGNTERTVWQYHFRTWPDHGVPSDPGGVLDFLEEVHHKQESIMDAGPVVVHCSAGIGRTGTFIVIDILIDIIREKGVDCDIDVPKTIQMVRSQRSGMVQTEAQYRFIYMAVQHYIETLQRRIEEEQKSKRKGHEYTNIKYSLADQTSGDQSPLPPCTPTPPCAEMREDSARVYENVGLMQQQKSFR

SMILES | IC50 [1] [nM] | other results
C[C@@H]1OCC2(CCN(c3cnc(Sc4cccc(NC(=O)CCC(=O)NCCCOCCOCCOCCCNc5cccc6c5C(=O)N(C5CCC(=O)NC5=O)C6=O)c4Cl)c(N)n3)CC2)[C@@H]1N (some centres not stated) |  | DC50 [2]: 6 nM
Cc1nc(N2CCC3(CC2)CO[C@@H](C)[C@H]3N)cnc1-c1ccc(OCCOCCOCCCOCCCOCCCOCCCOCCOCCNCC(=O)COc2cccc3c2C(=O)N(C2CCC(=O)NC2=O)C3=O)c(Cl)c1Cl (some centres not stated) |  | IC50 [3]: 22.5 nM
C=C/C(=C/C(=O)C[C@H](C)C[C@@H](C)CC[C@H](O)[C@H](C)C(=O)C[C@@H](O)[C@H](C)[C@@H](C)OC(=O)C[C@@H](O)/C(C(=O)O)=C(\C)C(=O)O)CC | 29000 | 
CC1(NCc2cn(CCOCCOCCOCCOCCNc3cccc4c3C(=O)N(C3CCC(=O)NC3=O)C4=O)nn2)CCN(c2cnc(-c3cccc(Cl)c3Cl)c(N)n2)CC1 (configuration not stated) |  | IC50 [4]: 714 nM

The next lines start with results.

IC50 [1] [nM] | SMILES | other results
50 | COC(=O)c1cc(NC2=NC(=O)/C(=C/c3ccc(C)cc3)S2)ccc1O | 
16800 | NC(=O)c1cc[n+](CC2=C(C(=O)O)N3C(=O)[C@@H](NC(=O)[C@@H](c4ccccc4)S(=O)(=O)O)[C@@H]3SC2)cc1 | 
2100 | O=C(O)c1cc(O)c(=O)c2c(O)c(O)ccc2c1 [7-DESHYDROXYPYROGALLIN-4-CARBOXYLIC ACID] | 
